Assay results taken from article PMC10385579, “Design, Synthesis, and Biological Evaluation of Indole-2-carboxamides as Potential Multi-Target Antiproliferative Agents” (Pharmaceuticals, 2023).

Key:
[1] = system: colon cancer (HT-29) cell line; experiment: Antiproliferative assay, HT-29; type: cell-based; settings: Homo sapiens, read-out: Antiproliferative Activity IC50 ± SEM, HT-29
Method: (§1) 4.2.1.2. Assay for antiproliferative effect
(§2) To explore the antiproliferative potential of compounds propidium iodide fluorescence assay was performed using different cell lines such as Panc-1 (pancreas cancer cell line), MCF-7 (breast cancer cell line), HT-29 (colon cancer cell line) and A-549 (epithelial cancer cell line), respectively.
(§3) To calculate the total nuclear DNA, a fluorescent dye (propidium iodide, PI) is used which can attach to the DNA, thus offering a quick and precise technique. PI cannot pass through the cell membrane and its signal intensity can be considered as directly proportional to quantity of cellular
(§4) DNA. Cells whose cell membranes are damaged or have changed permeability are counted as dead ones. The assay was performed by seeding the cells of different cell lines at a density of 3000-7500 cells/well (in200μl medium) in culture plates followed by incubation for 24h at 37 °C in humidified 5%CO2/95% air atmospheric conditions. The medium was removed; the compounds were added to the plates at 10 μM concentrations (in 0.1% DMSO) in triplicates, followed by incubation for 48h. DMSO (0.1%) was used as control. After incubation, medium was removed followed by the addition of PI (25 μl, 50μg/mL in water/medium) to each well of the plates. At - 80 °C, the plates were allowed to freeze for 24 h, followed by thawing at 25 °C. A fluorometer (Polar-Star BMG Tech) was used to record the readings at excitation and emission wavelengths of 530 and 620 nm for each well. The percentage cytotoxicity of compounds was calculated using […]
(§5) Where ATC= Absorbance of treated cells and AC= Absorbance of control. Erlotinib was used as positive control in the assay.

[2] = system: pancreatic cancer (Panc-1) cell line; experiment: Antiproliferative assay, Panc-1; type: cell-based; settings: Homo sapiens, read-out: Antiproliferative Activity IC50 ± SEM, Panc-1
Method: as §1, §2, §3, §4, §5

[3] = system: four human cancer cell lines (A-549, MCF-7, Panc-1, HT-29); experiment: Antiproliferative assay, average over the four cancer cell lines (GI50); type: cell-based; settings: average of the four cancer cell lines
Method: See Supplementary Materials.
as §1
To explore the antiproliferative potential of compounds propidium iodide fluorescence assay was performed using different cell lines such as Panc-1 (pancreas cancer cell line), MCF-7 (breast […]
as §3
DNA. Cells whose cell membranes are damaged or have changed permeability are counted as dead ones. The assay was performed by seeding the cells of different cell lines at a density of 3000- […]
The medium was removed; the compounds were added to the plates at 10 μM concentrations (in 0.1% DMSO) in triplicates, followed by incubation for 48h. DMSO (0.1%) was used as control. After incubation, medium was removed followed by the addition of PI (25 μl, 50μg/mL in water/medium) to each well of the plates. At - 80 °C, the plates were allowed to freeze for 24 h, followed by thawing at 25 °C. A fluorometer (Polar-Star BMG Tech) was used to record the readings at excitation and emission wavelengths of 530 and 620 nm for each well. The percentage cytotoxicity of compounds was calculated using […]
Where ATC= Absorbance of treated cells and AC= Absorbance of control. […]
positive control in the assay.

EGFR = EGFR (Homo sapiens, UniProt P00533); experiment: EGFR inhibitory assay
EGFR, sequence (P00533 669-1210): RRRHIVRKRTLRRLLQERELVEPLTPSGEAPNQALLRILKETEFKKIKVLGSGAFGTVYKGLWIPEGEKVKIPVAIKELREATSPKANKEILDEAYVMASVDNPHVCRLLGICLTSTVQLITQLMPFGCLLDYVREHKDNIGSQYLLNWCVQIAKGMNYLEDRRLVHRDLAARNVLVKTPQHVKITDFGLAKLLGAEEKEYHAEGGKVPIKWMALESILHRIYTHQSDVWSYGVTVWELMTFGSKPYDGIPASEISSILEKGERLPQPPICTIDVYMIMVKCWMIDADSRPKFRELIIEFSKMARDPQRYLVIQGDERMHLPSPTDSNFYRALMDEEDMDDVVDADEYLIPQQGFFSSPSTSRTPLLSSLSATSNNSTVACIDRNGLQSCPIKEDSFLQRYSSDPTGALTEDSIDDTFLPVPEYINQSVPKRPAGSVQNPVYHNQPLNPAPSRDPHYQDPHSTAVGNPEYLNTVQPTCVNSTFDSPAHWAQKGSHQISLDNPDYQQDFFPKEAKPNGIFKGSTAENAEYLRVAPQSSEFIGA

caspase-3 = experiment: Caspase 3 assay in A-549 cells; type: cell-based, human; settings: for Caspase-3 Conc: untreated control 66 pg/mL
Method: Caspases play a crucial function in the induction and completion of apoptosis. Caspase-3 is an essential caspase that cleaves different proteins in cells, resulting in apoptosis. […]
4.2.5. Caspase-3 activation assay
Allow all reagents to reach room temperature before use. Gently mix all liquid reagents prior to use. Determine the number of 8-well strips needed for the assay. Insert these in the frame(s) for current use. Add 100 μl of the Standard Diluent Buffer to the zero standard wells. Well(s) reserved for chromogen blank should be left empty. Add 100 μl of standards and controls or diluted samples to the appropriate microtiter wells. The sample dilution chosen should be optimized for each experimental system. Tap gently on side of plate to mix. Cover wells with plate cover and incubate for 2 hours at room temperature. Thoroughly aspirate or decant solution from wells and discard the liquid, Wash wells 4 times. Pipette 100 μl of Caspase-3 (Active) Detection Antibody solution into each well except the chromogen blank(s). Tap gently on the side of the plate to mix. Cover plate with plate cover and incubate for 1 hour at room temperature. Thoroughly aspirate or decant solution from wells and discard the liquid, Wash wells 4 times. Add 100 μl Anti-Rabbit IgG HRP Working Solution to each well except the chromogen blank(s). Prepare the working dilution as described in Preparing IgG HRP. Cover wells with the plate cover and incubate for 30 minutes at room temperature. Thoroughly aspirate or decant solution from wells and discard the liquid. Wash wells 4 times. Add 100 μl of Stabilized Chromoge n to each well. The liquid in the wells will begin to turn blue. Incubate for 30 minutes at room temperature and in the dark. The incubation time for chromogen substrate is often determined by the microtiter plate reader used. Many plate readers have the capacity to record a maximum optical density (O.D.) of 2.0. The O.D. values should be monitored, and the substrate reaction stopped before the O.D. of the positive wells exceeds the limits of the instrument. The O.D. values at 450 nm can only be read after the Stop Solution has been added to each well. If using a reader that records only to 2.0 O.D., stopping the assay after […]
Add 100 μl of Stop Solution to each well. Tap side of plate gently to mix. The solution in the wells should change from blue to yellow. Read the absorbance of each well at 450 nm having blanked the plate reader against a chromogen blank composed of 100 μl each of Stabilized Chromogen and Stop Solution. Read the plate within 2 hours after adding the Stop Solution. Use a curve fitting software to generate the standard curve. A four-parameter algorithm provides the best standard curve fit. Read the concentrations for unknown samples and controls from the standard curve. Multiply value(s) obtained for sample(s) by the appropriate dilution factor to correct for the dilution in step 3. Samples producing signals greater than that of the highest standard should be diluted in Standard Diluent Buffer and reanalyzed.

Row | IC50 [1] | IC50 [2] | GI50 [3] | IC50 (EGFR) | Compound | Caspase-3 Conc (caspase-3) | Caspase-3 Fold Change (caspase-3; vs untreated control)
1 | 0.026 ± 0.002 µM | 0.026 ± 0.002 µM | 0.026 µM | 0.071 ± 0.006 µM | O=C(NCC(c1ccccc1)c1c(-c2ccccc2)[nH]c2ccccc12)c1cc2cc(Cl)ccc2[nH]1 (centres unmarked) [Compound Va, 5-Chloro-N-(2-phenyl-2-(2-phenyl-1H-indol-3-yl)ethyl)-1H-indole-2-carboxamide] | 726 ± 6 pg/mL | 
2 | 0.03 ± 0.002 µM | 0.03 ± 0.002 µM | 0.031 µM | 0.079 ± 0.006 µM | CO/C=C/c1c(C(=O)NCC(c2ccccc2)c2c(-c3ccccc3)[nH]c3ccccc23)[nH]c2ccc(Cl)cc12 (centres unmarked) [Compound Vg, (E)-5-Chloro-3-(2-methoxyvinyl)-N-(2-phenyl-2-(2-phenyl-1H-indol-3-yl)ethyl)-1H-indole-2-carboxamide] | 528 ± 5 pg/mL | ~8
